Results on one compound are retold here after US7592326B2, “Method for stimulating the immune, inflammatory or neuroprotective response” (priority 2004, dated 2009).

The structures appear in SMILES notation.

The subject of data set [1] is p38 MAPK. Description: Western blot signaling in human macrophages: p38 MAPK. In kind it is cell-based. The note with it: human M-CSF-induced monocyte-derived macrophages. Here is the method: Preparation of macrophages was performed as previously described (Akagawa et al., 1996). Briefly, fully differentiated macrophages from human PBMC were isolated from leukapheresis preparations obtained by the Blood Bank, Clinical Center, National Institutes of Health, Bethesda, Md. The leukocyte-rich preparation was overlaid on Accu-prep in 50 ml tubes and the tubes were centrifuged at 800 × g for 20 min at room temperature. PBMC fractions were collected, washed once with PBS at room temperature and twice with complete medium at 4° C. and resuspended in the same medium. Monocytes were further purified by using iso-osmotic Percoll gradient (Amersham Biosciences). At this stage, the purity of monocytes was higher than 90%. One and half million cells were placed on a 12-well plate in 1.5 ml RPMI1640 containing 50 ng/ml human M-CSF. On day 4, 1 ml of the medium was replaced with 1 ml of fresh medium containing 50 ng human M-CSF. On day 7, non-adherent cells were washed out and adherent cells were used as macrophages.
Western blot analysis of macrophages was performed as previously described (Matsuyama et al., 2003). Briefly, prepared macrophages were starved in RPMI 1640 without FCS for 10 h. […] Proteins were analyzed on 12% polyacrylamide gels by SDS-PAGE and transferred electrophoretically to nitrocellulose membranes at 150 mA for 1 h in a semi-dry system. […]
(In western blotting, separated proteins are transferred to a membrane and probed.)

For data set [2], the system named is S. aureus strain NCH57. In words: Mouse S. aureus pneumonia (proposed). In kind it is in vivo. The note with it: 200 nmol 24- and 48 hours prior; 1×10^9 CFU NCH57.
Data set [3] is described as follows: Lethality in CD1 mice. Conditions: 50 μl of 200 μM, after 24 h.
Data set [4] has as its system immature DCs. Description: Surface phenotype of DCs exposed to c-di-GMP (flow cytometry). In kind it is cell-based, human. Here is the method: Peripheral blood mononuclear cells (PBMC) were isolated by Ficoll-Hypaque gradient separation of buffy coats obtained from healthy volunteer blood donors by the Transfusion Center of Università Degli Studi “La Sapienza” Rome. DCs were generated from monocytes purified from PBMC by positive selection using magnetic cell separation columns and CD14 Microbeads. Highly enriched monocytes (>95% CD14^+) were cultured at 6×10^5/ml in RPMI 1640 medium supplemented with 15% heat-inactivated fetal calf serum (FCS), L-glutamine and penicillin-streptomycin and 250 ng/ml granulocyte macrophage-colony stimulating factor (GM-CSF) and 500 U/ml interleukin (IL)-4 at 37° C. for 5 days. Differentiation to DC was assessed both by morphologic observation and the detection of specific surface markers by flow cytometry. These cells were CD14^−, CD1a^+, HLA-DR^intermediate, HLA-ABC^intermediate CD80^low, CD86^low consistent with an immature DC phenotype. Untreated immature DCs were used as controls. […] LPS-treated DCs became stimulated/activated and produced CD83^+, HLA-DR^high, HLA-ABC^high consistent with a mature DC phenotype. […] Experiments using trypan blue exclusion tests were always performed in order to exclude any aspecific toxicity of c-di-GMP. NaCl (0.9%) used to resuspend the compound was always included as control. Cell staining was performed using mouse monoclonal antibodies FITC- or PE-conjugate. The following mAbs were used: CD14 (IgG1, PE), CD1a (IgG1, FITC), HLA-DR (IgG2a, FITC), HLA-ABC (IgG1, FITC), CD80 (IgG1, FITC), CD86 (IgG1, FITC); CD83 (IgG2b, PE), CXCR4 (IgG2aPE), CCR5 (IgG2a, FITC), CD32 (IgG2b, FITC). CD40, CCR7 and mannose receptor (MR) staining was performed using mouse mAb followed by FITC-conjugated affinity purified, isotype-specific goat anti-mouse Abs. Samples were analyzed using a FACScan flow cytometer and CellQuest software (Becton Dickinson). To investigate whether c-di-GMP induced phenotypic differentiation of human DCs, immature and mature DCs were cultured with c-di-GMP for 24 h and then analyzed for surface molecule expression.
In general terms: Flow cytometry measures light scatter and fluorescence of single cells or particles in a stream.

Data set [5] has as its system C. albicans. In words: Candidiasis of oral mucosal surfaces and intestinal tract in mice (proposed). In kind it is in vivo, Candida albicans. Conditions: C. albicans in drinking water. From the text: Dissemination to livers occurs and is 100% on days 5 to 15. The median kidney or liver CFU were 2 or 3 log10 CFU, respectively, on day 15; despite this, mortality was low through 21 days of infection.

For data set [6], the system named is human colon carcinoma cells. Conditions: synthetic c-di-GMP; cited from earlier work.

For `Nc1nc(=O)c2ncn([C@@H]3OC4COP(=O)(O)O[C@H]5[C@@H](O)[C@H](n6cnc7c(=O)nc(N)[nH]c76)O[C@@H]5COP(=O)(O)OC4C3O)c2[nH]1` (some centres unmarked) [c-di-GMP, Bis(3′→5′)-cyclic diguanylic acid], the “phosphorylation of p38 MAPK” value in data set [1] is on record as “no phosphorylation”. The survival result in data set [2] is reported as “greater survival”. Further, the “lethality in CD1 mice” value in data set [3] is listed as “non-lethal”. Further, the “effect in dose-response titration on DCs” value in data set [4] (0.5 μM c-di-GMP) is “No effect”; in data set [4] (200 μM c-di-GMP), “inconsistent results”. Further, the LPS-induced maturation entry in data set [4] (DCs with LPS, data not shown) is on record as “did not interfere”. Also, the “surface expression of CD1a, HLA-ABC, CCR5 and CD40” value in data set [4] (data not shown) is recorded as “did not affect”. Moreover, the “expression of chemokine receptor CXCR4” value in data set [4] (immature DCs, 24 h, FIG. 1C) is reported as “significantly increased”. Moreover, in data set [4] (immature DCs, 24 h, FIG. 1D), the “expression of chemokine receptor CCR7” value is recorded as “significantly increased”. Also, the “expression of CD86 (B7-2) (percentage of positive cells)” value in data set [4] (immature DCs, 24 h, FIG. 1F) is “up-regulated”. Also, the CD32 expression result in data set [4] (immature DCs, 24 h, FIG. 1H) is given as “not affected”. Besides, the “expression of CD83 (mean fluorescence)” value in data set [4] (immature DCs, 24 h, dose-dependent, no effect at high concentrations, FIG. 1B) is on record as “slightly up-regulated”. Besides, in data set [4] (immature DCs, 24 h, dose-dependent, FIG. 1E), the “expression of CD80 (B7-1)” value is “slightly increased”. Besides, the “expression of mannose receptor (MR) (mean fluorescence)” value in data set [4] (immature DCs, 24 h, dose-dependent, FIG. 1G) is listed as “reduced”. Also, in data set [4] (immature DCs, c-di-GMP 5, 50, 100 μM, 24 h, FIG. 1A), the “expression of HLA-DR (MFI, percentage of positive cells)” value was “up-regulated”. The “mucosal infection and dissemination compared to untreated controls” value in data set [5] is recorded as “reduce mucosal infection”. In data set [6], the “basal and growth factor induced proliferation of human colon carcinoma cells” value is recorded as “inhibits”.
